Measured values from patent EP4603105A1, “PHARMACEUTICAL COMPOSITION CONTAINING CYCLIC COMPOUND HAVING SELECTIVE KRAS INHIBITORY EFFECT AGAINST HRAS AND NRAS” (CHUGAI SEIYAKU KABUSHIKI KAISHA, priority 2022, dated 2024).
*1 amine or outer side, *2 acyl side, *3 side chain or, on linkers, in order; H or OH if unused. Where a SMILES comes first, the peptide text is derived from it. Bridges are numbered along the chain shown (N, C = ends). [ ]: non-standard residue; d: D form. The star is where a group is joined. X6 = CC(C)(C)CCN([C@@H](Cc1ccc(C(F)(F)F)cc1)C(=O)[*:2])[*:1]; hPhe(3-Cl-4-CF3) = N[C@@H](CCc1ccc(C(F)(F)F)c(Cl)c1)C(=O)O; NMeGly(cPent) = CN[C@H](C(=O)O)C1CCCC1; NMeD = CN[C@@H](CC(=O)O)C(=O)O; NMeL = CN[C@@H](CC(C)C)C(=O)O; Morpholide = C1CN(*)CCO1; Ac5c = NC1(C(=O)O)CCCC1; Sar = CNCC(=O)O

Key:
[1] = target: GDP-bound KRAS wild-type protein (Homo sapiens, UniProt P01116); assay: Binding to KRAS by surface plasmon resonance (SPR), dissociation constant KD; conditions: 1:1 binding model
Experimental: Surface plasmon resonance was used to analyze the binding affinity of compounds for KRAS, NRAS, and HRAS. The apparatus used was Biacore 8K, 8K+, or T200 (GE Healthcare), and the running buffer used was HBS (10 mM HEPES-NaOH, 150 mM NaCl, pH 7.4) containing 1 mM DTT, 10 mM MgCl2, 0.01% Tween 20, 10 µM GDP, and 4% DMSO.
Biotinylated Avi-tag fusion KRAS, NRAS, and HRAS proteins were expressed in E. coli BL21 (DE3) strains, and after cells were homogenized, they were purified using Streptavidin Mutein Matrix and Superdex 75. After purification, GDP-loaded KRAS, NRAS, and HRAS proteins were immobilized on the surface of Sensor Chip CAP (Cytiva) coated with Biotin CAPture Reagent in an immobilization amount of about 100 to 300 RU. Binding of each compound was evaluated by the Single Cycle Kinetics method, and a running buffer or a compound solution was added to the RAS protein non-immobilized surface and the immobilized surface to obtain a binding response. The flow rate was set to 100 µL/min, and in the compound-adding cycle, compound solutions having different concentrations were intermittently added for 75 seconds each, starting from a low concentration. […] In the blank cycle, a running buffer was intermittently added and not the compound solution. The Biotin CAPture Reagent and RAS proteins were immobilized for each cycle, and at the end of each cycle, the sensor chip was regenerated by the regeneration solution appended to the Biotin CAPture Kit (Cytiva). Measurement was carried out at 30°C.
The resulting sensorgram was subjected to curve fitting based on a 1:1 binding model on Biacore Insight Evaluation Software or T200 Evaluation Software, and thereby the dissociation constant KD of each compound with respect to KRAS, NRAS, and HRAS was determined. […] Blank indicates a compound from which the KD value with respect to NRAS or HRAS was not obtained.

[2] = system: human lung cancer strain NCI-H441; format: cell-based
Outline: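 Proliferation was scored by […] measured after the reagent was added to cultures kept at 37°C in 5% carbon dioxide.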

[3] = target: GDP-bound NRAS wild-type protein (Homo sapiens, UniProt P01111); assay: Binding to NRAS by surface plasmon resonance (SPR), KD and KD ratio to KRAS
Outline: (§1)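 SPR, 30°C: Avi-biotin RAS·GDP captured via Biotin CAPture (~100–300 RU); running buffer HBS pH 7.4, 1 mM DTT, 10 mM MgCl2, 0.01% Tween 20, 10 µM GDP, 4% DMSO. Single-cycle kinetics, 100 µL/min, 75 s injections; 1:1 model → KD.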

HRAS wild-type protein = HRAS wild-type protein (Homo sapiens, UniProt P01112); assay: Binding to HRAS by surface plasmon resonance (SPR), KD and KD ratio to KRAS
Outline: as §1

[4] = ratio of KD for GDP-bound NRAS wild-type protein to KD for KRAS
[5] = ratio of KD for HRAS wild-type protein to KD for KRAS
[6] = ratio of the KD value with respect to GDP-bound NRAS wild-type protein to the KD value with respect to KRAS
[7] = ratio of the KD value with respect to HRAS wild-type protein to the KD value with respect to KRAS

Sequence of HRAS wild-type protein (P01112 whole entry): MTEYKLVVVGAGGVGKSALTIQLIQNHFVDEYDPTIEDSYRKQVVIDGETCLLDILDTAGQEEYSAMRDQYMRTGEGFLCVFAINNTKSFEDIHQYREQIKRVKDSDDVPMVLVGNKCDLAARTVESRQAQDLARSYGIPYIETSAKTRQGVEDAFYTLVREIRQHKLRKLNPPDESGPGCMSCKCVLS
Sequence of GDP-bound KRAS wild-type protein (P01116 1-188 isoform P01116-2): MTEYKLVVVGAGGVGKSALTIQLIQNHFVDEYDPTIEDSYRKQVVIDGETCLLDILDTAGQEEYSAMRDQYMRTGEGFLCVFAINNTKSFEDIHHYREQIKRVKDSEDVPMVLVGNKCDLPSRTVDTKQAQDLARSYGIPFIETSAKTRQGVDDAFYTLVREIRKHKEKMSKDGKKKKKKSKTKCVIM
Sequence of GDP-bound NRAS wild-type protein (P01111 whole entry): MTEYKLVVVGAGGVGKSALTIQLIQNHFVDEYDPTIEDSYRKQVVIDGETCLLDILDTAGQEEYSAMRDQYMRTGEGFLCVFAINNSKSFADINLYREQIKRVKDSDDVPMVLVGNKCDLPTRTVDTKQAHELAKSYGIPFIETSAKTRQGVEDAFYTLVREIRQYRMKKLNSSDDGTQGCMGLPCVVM

| Compound | Kd [1] | IC50 [2] | Kd ([1]; Single Cycle Kinetics) | NRAS /KRAS [3, 4] | HRAS /KRAS (HRAS wild-type protein; [5]) | NRAS /KRAS [3, 6] | HRAS /KRAS (HRAS wild-type protein; [7]) |
| --- | --- | --- | --- | --- | --- | --- | --- |
| CC[C@H](C)[C@@H]1NC(=O)[C@H](COC)N(C)C(=O)C[C@@H](C(=O)N(C)CC)N(C)C(=O)[C@H](C2CCCC2)N(C)C(=O)C2(CC(C)(C)C2)NC(=O)[C@@H]2CC(F)(F)CN2C(=O)[C@H](CCc2ccc(C(F)(F)F)c(OC)c2)NC(=O)CN(C)C(=O)[C@H](Cc2ccc(C(F)(F)F)cc2)N2CC/C=C\C[C@@H](C2=O)N(C)C(=O)[C@@H]2CCN2C1=O [PP3136] | 0.63 nM | 47 nM |  | B (a compound having 3 or more and less than 10 is denoted as B) | B (a compound having 3 or more and less than 10 is denoted as B) |  |  |
| CC[C@H](C)[C@@H]1NC(=O)[C@H](COC)N(C)C(=O)C[C@@H](C(=O)N(C)C)N(C)C(=O)[C@H](C2CCCC2)N(C)C(=O)C2(CC(C)(C)C2)NC(=O)CNC(=O)[C@H](CCc2ccc(C(F)(F)F)c(Cl)c2)NC(=O)CN(C)C(=O)[C@H](Cc2ccc(C(F)(F)F)cc2)N2CC/C=C\C[C@@H](C2=O)N(C)C(=O)CN(C)C1=O [PP3134] | 0.33 nM | 812 nM |  | AA (a compound having 20 or more is denoted as AA) | A (a compound having 10 or more and less than 20 is denoted as A) |  |  |
| CCC[C@H]1C(=O)N[C@@H]([C@H](C)CC)C(=O)N(C)CC(=O)N(C)[C@H]2C/C=C\CCN(C2=O)[C@@H](Cc2ccc(C)cc2)C(=O)N(C)CC(=O)N[C@@H](CCc2ccc(C(F)(F)F)c(Cl)c2)C(=O)N2C[C@H](OCC)C[C@H]2C(=O)NC2(CC(C)(C)C2)C(=O)N(C)[C@@H](C2CCCC2)C(=O)N(C)[C@H](C(=O)N(C)C)CC(=O)N1C [PP2221] |  | 40.5 nM | 1.7 nM |  |  | A (a compound having 10 or more and less than 20 is denoted as A) | A (a compound having 10 or more and less than 20 is denoted as A) |
| CCC[C@H]1C(=O)N[C@@H]([C@@H](C)CC)C(=O)N(C)CC(=O)N(C)[C@H]2C/C=C\CCN(C2=O)[C@@H](Cc2ccc(C)cc2)C(=O)N(C)CC(=O)N[C@@H](CCc2ccc(C(F)(F)F)c(OC)c2)C(=O)N2CC3(CC3)C[C@H]2C(=O)NC2(CC(C)(C)C2)C(=O)N(C)[C@@H]([C@@H](C)CC)C(=O)N(C)[C@H](C(=O)N(C)C)CC(=O)N1C [PP3011] | 0.58 nM | 31.1 nM |  | A (a compound having 10 or more and less than 20 is denoted as A) | B (a compound having 3 or more and less than 10 is denoted as B) |  |  |
| CCO[C@@H]1C[C@H]2C(=O)NC3(CC(C)(C)C3)C(=O)N(C)[C@@H](C(CC)CC)C(=O)N(C)[C@H](C(=O)N(C)C)CC(=O)N(C)[C@H]3CC/C=C/c4ccc(cc4)C[C@@H](C(=O)N(C)CC(=O)N[C@@H](CCc4ccc(Cl)c(Cl)c4)C(=O)N2C1)N1CC/C=C\C[C@@H](C1=O)N(C)C(=O)CN(C)C(=O)[C@H]([C@@H](C)CC)NC3=O [PP2589] | 0.45 nM | 74.1 nM |  | AA (a compound having 20 or more is denoted as AA) | A (a compound having 10 or more and less than 20 is denoted as A) |  |  |
| CCC[C@H]1C(=O)N[C@@H](C2CCCCC2)C(=O)N(C)CC(=O)N(C)[C@H]2C/C=C\CCN(C2=O)[C@@H](Cc2ccc(C)cc2)C(=O)N(C)CC(=O)N[C@@H](CCc2ccc(C(F)(F)F)c(Cl)c2)C(=O)N2C[C@H](OCC)C[C@H]2C(=O)NC2(CC(C)(C)C2)C(=O)N(C)[C@@H](C2CCCC2)C(=O)N(C)[C@H](C(=O)N(C)C)CC(=O)N1C [PP2998] | 0.43 nM | 8.3 nM |  | A (a compound having 10 or more and less than 20 is denoted as A) | AA (a compound having 20 or more is denoted as AA) |  |  |
| CCC[C@H]1C(=O)N[C@H]([C@@H](C)CC)C(=O)N(C)CC(=O)N(C)[C@H]2C/C=C\CCN(C2=O)[C@@H](Cc2ccc(C)cc2)C(=O)N(C)CC(=O)N[C@@H](CCc2cc(F)c(C(F)F)c(F)c2)C(=O)N2C[C@H](OCC)C[C@H]2C(=O)NC2(CC(C)(C)C2)C(=O)N(C)[C@@H](C(CC)CC)C(=O)N(C)[C@H](C(=O)N(C)C)CC(=O)N1C (stereo in doubt) [PP2783] | 1.7 nM | 33.9 nM |  | A (a compound having 10 or more and less than 20 is denoted as A) | A (a compound having 10 or more and less than 20 is denoted as A) |  |  |

Second part, led by results:

| Kd [1] | IC50 [2] | Kd ([1]; Single Cycle Kinetics) | Compound | NRAS /KRAS [3, 4] | HRAS /KRAS (HRAS wild-type protein; [5]) | NRAS /KRAS [3, 6] | HRAS /KRAS (HRAS wild-type protein; [7]) |
| --- | --- | --- | --- | --- | --- | --- | --- |
| 0.4 nM | 11.1 nM |  | CCC[C@H]1C(=O)N[C@@H]([C@@H](C)CC)C(=O)N(C)CC(=O)N(C)[C@H]2C/C=C\CCN(C2=O)[C@@H](Cc2ccc(C(F)(F)F)cc2)C(=O)N(C)CC(=O)N[C@@H](CCc2ccc(C(F)(F)F)c(F)c2)C(=O)N2C[C@H](F)C[C@H]2C(=O)NC2(CC(C)(C)C2)C(=O)N(C)[C@@H](C2CCCCC2)C(=O)N(C)[C@H](C(=O)N(C)C)CC(=O)N1C [PP3122] | A (a compound having 10 or more and less than 20 is denoted as A) | B (a compound having 3 or more and less than 10 is denoted as B) |  |  |
| 0.92 nM | 25.3 nM |  | CC[C@H](C)[C@@H]1NC(=O)[C@H](CC(C)C)N(C)C(=O)C[C@@H](C(=O)N2CCOCC2)N(C)C(=O)[C@H](C2CCCC2)N(C)C(=O)C2(CCCC2)NC(=O)[C@@H]2CCCN2C(=O)[C@H](CCc2ccc(C(F)(F)F)c(Cl)c2)NC(=O)CN(C)C(=O)[C@H](Cc2ccc(C(F)(F)F)cc2)N(CCC(C)(C)C)C(=O)CN(C)C(=O)CN(C)C1=O [PP0127] ([NMeL]I[Sar][Sar][X6][Sar][hPhe(3-Cl-4-CF3)]P[Ac5c][NMeGly(cPent)][NMeD]-Morpholide; lactam N-11) | C (A compound having a KD ratio of 0.1 or more and less than 3 is denoted as C) | C (A compound having a KD ratio of 0.1 or more and less than 3 is denoted as C) |  |  |
| 0.034 nM | 5.5 nM |  | CC[C@H](C)[C@@H]1NC(=O)[C@H](CC2CC2)N(C)C(=O)C[C@@H](C(=O)N(C)CC)N(C)C(=O)[C@H](C2CCCC2)N(C)C(=O)C2(CC(C)(C)C2)NC(=O)[C@@H]2C[C@@H](F)CN2C(=O)[C@H](CCc2cc(F)c(C(F)(F)F)c(F)c2)NC(=O)CN(C)C(=O)[C@H](Cc2ccc(C)cc2)N2CC/C=C\C[C@@H](C2=O)N(C)C(=O)CN(C)C1=O [PP2802] | AA (a compound having 20 or more is denoted as AA) | A (a compound having 10 or more and less than 20 is denoted as A) |  |  |
| 0.48 nM | 45.8 nM |  | CCO[C@@H]1C[C@H]2C(=O)NC3(CC(C)(C)C3)C(=O)N(C)[C@@H](C3CCCC3)C(=O)N(C)[C@H](C(=O)N(C)C)CC(=O)N(C)[C@@H]([C@@H](C)OC)C(=O)N[C@@H]([C@@H](C)CC)C(=O)N3CCC[C@H]3C(=O)N(C)[C@H]3C/C=C\CCN(C3=O)[C@@H](Cc3ccc(C)cc3)C(=O)N(C)CC(=O)N[C@@H](CCc3cc(F)c(C(F)(F)F)c(F)c3)C(=O)N2C1 [PP3214] | A (a compound having 10 or more and less than 20 is denoted as A) | A (a compound having 10 or more and less than 20 is denoted as A) |  |  |
|  | 3890 nM | 87 nM | CC[C@H](C)[C@@H]1NC(=O)[C@@H](CC(C)C)N(C)C(=O)C[C@@H](C(=O)N2CCOCC2)N(C)C(=O)[C@H](C2CCCC2)N(C)C(=O)C2(CCCC2)NC(=O)[C@@H]2CCCN2C(=O)[C@H](CCc2cc(F)c(C(F)(F)F)c(F)c2)NC(=O)CN(C)C(=O)[C@H](Cc2ccc(C(F)(F)F)cc2)N2CCCC[C@@H](C2=O)N(C)C(=O)CN(C)C1=O [PP0591] |  |  | B (a compound having 3 or more and less than 10 is denoted as B) | B (a compound having 3 or more and less than 10 is denoted as B) |
